# Data: article PMC9184463, “Structural basis of ligand binding modes of human EAAT2” (Nature Communications, 2022)
# “And” between values parts separate entries of the source, which are not always exact repeats. Identical values can stand only once.
# Key:
# hEAAT3 = conditions: cited from earlier work
# hEAAT2 = conditions: cited from earlier work
# hEAAT2 mutant D475A = target: T1, hEAAT2 mutant D475A (Homo sapiens, UniProt P43004, D475A); assay: whole-cell patch-clamp, hEAAT2 mutant D475A in HEK293T cells; format: cell-based; conditions: 0 mV; for WAY-213613-inhibited current, normalized (MEAN): D475A
# T1 construct: Strep Tag II (N); superfolder GFP (sfGFP) (N); expressed in transfected cells; host or cells: HEK293T
# T1 sequence (P43004 whole entry D475A): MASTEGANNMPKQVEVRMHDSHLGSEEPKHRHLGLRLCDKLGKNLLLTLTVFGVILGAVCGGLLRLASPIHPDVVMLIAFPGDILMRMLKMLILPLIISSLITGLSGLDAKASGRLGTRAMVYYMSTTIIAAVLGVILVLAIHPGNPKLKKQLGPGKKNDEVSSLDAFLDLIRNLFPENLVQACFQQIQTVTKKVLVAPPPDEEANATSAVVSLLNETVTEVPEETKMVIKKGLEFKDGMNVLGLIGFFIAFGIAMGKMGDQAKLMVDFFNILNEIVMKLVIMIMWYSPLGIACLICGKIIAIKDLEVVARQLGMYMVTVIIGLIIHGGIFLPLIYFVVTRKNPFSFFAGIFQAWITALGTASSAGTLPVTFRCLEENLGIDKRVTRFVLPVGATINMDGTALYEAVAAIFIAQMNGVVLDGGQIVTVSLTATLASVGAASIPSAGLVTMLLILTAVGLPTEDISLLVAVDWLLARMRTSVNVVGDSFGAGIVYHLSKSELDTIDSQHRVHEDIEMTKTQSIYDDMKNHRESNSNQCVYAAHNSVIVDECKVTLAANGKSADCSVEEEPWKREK
# Protocol: (§1) Human embryonic kidney 293T (HEK293T) cells were cultured in Dulbecco’s Modified Eagle Medium (DMEM, Gibco) media supplemented with 15% (v/v) fetal bovine serum (FBS, PAN-Biotech) at 37 °C with 5% CO2. HEK293T cells were grown in the culture dishes (d = 3.5 cm) (Thermo Fisher Scientific) for 24 h and then 1 μg hEAAT2 wild-type and mutant plasmids for per dishes were used to transiently transfect HEK293T using 0.7 μg Lipofectamine 2000 Reagent (Thermo Fisher Scientific). Cells were analyzed using electrophysiological experiments between 24 and 40 h after transfection at room temperature (21–25 °C).
# (§2) Electrophysiological experiments were performed as described previously with a minor modification. External buffer contained 140 mM NaCl, 2 mM MgCl2, 2 mM CaCl2, and 10 mM HEPES (pH = 7.4 with NaOH and osmolarity of ∼310 mosmol L^−1) and while internal pipette solution comprised of 130 mM NaSCN, 2 mM MgCl2, 10 mM EGTA, 10 mM HEPES (pH = 7.4 with NaOH and osmolarity of ∼310 mosmol L^−1) and 10 mM glutamate. 50 mM WAY-213613 stock solutions were prepared in dimethyl sulfoxide (DMSO), followed by dilutions to working concentrations with the above-mentioned external buffer. […] Whole cell patch-clamp experiment recordings were made from isolated GFP-positive HEK293T cells (hEAAT2 wild type and mutants). In all, 3–6 MΩ was used to fire a polished pipette (Sutter Instrument). […] Cells were immersed in the above-mentioned external buffer supplemented with a specified concentration of glutamate or WAY-213613. Glutamate-induced anion current, Na^+-dependent anion leak current and glutamate transport current or WAY-213613 inhibited anion leak currents were recorded using an EPC-10 amplifier (HEKA Electronic) at a 20 kHz sample rate with low pass filter at 5 kHz. All experiments were executed at 0 mV. After the cell current was stabilized, glutamate or WAY-213613 was sustained at the indicated concentrations from external dosing for at least 6 s. Subsequently, the cell was washed away with external buffer to start a new round of applications or end the experiment. The plateau currents were used for the following calculations. For analysis, the data was acquired by PatchMaster program (HEKA Electronic) at 5 s after recording. Nonlinear dose–response relationships were fitted into a Michaelis–Menten-like equation shown as below to obtain the apparent Km and Ki values in the presence of glutamate or WAY-213613.1 I/Imax=Km/i/C+Km/i In this equation, I represent the current at different glutamate or inhibitor concentrations, and Imax represents the maximal current at the saturating concentration of glutamate or inhibitor. [C] represents the concentration of glutamate or inhibitor. Km/i represents the apparent constant.
# hEAAT1 = conditions: cited from earlier work
# wild-type hEAAT2 = target: T2, wild-type hEAAT2 (Homo sapiens, UniProt P43004); assay: whole-cell patch-clamp of hEAAT2-associated anion current, wild-type hEAAT2 in HEK293T cells; format: cell-based; conditions: for WAY-213613-inhibited current, normalized (MEAN): WT
# T2 construct: Strep Tag II (N); superfolder GFP (sfGFP) (N); expressed in transfected cells; host or cells: HEK293T
# T2 sequence (P43004 whole entry, the tested form may be a part): as the sequence (P43004 whole entry D475A) above, with A475D counted along it
# Protocol: as §1, §2
# hEAAT2 mutant V468I = target: T3, hEAAT2 mutant V468I (Homo sapiens, UniProt P43004, V468I); assay: whole-cell patch-clamp, hEAAT2 mutant V468I in HEK293T cells; format: cell-based; conditions: 0 mV; for WAY-213613-inhibited current, normalized (MEAN): V468I
# T3 construct: Strep Tag II (N); superfolder GFP (sfGFP) (N); expressed in transfected cells; host or cells: HEK293T
# T3 sequence (P43004 whole entry V468I): as the sequence (P43004 whole entry D475A) above, with V468I, A475D counted along it
# Protocol: as §1, §2
# hEAAT2 mutant L467I = target: T4, hEAAT2 mutant L467I (Homo sapiens, UniProt P43004, L467I); assay: whole-cell patch-clamp, hEAAT2 mutant L467I in HEK293T cells; format: cell-based; conditions: 0 mV; for WAY-213613-inhibited current, normalized (MEAN): L467I
# T4 construct: Strep Tag II (N); superfolder GFP (sfGFP) (N); expressed in transfected cells; host or cells: HEK293T
# T4 sequence (P43004 whole entry L467I): as the sequence (P43004 whole entry D475A) above, with L467I, A475D counted along it
# Protocol: as §1, §2
# hEAAT2 mutant S441G = target: T5, hEAAT2 mutant S441G (Homo sapiens, UniProt P43004, S441G); assay: whole-cell patch-clamp, hEAAT2 mutant S441G in HEK293T cells; format: cell-based; conditions: 0 mV; for WAY-213613-inhibited current, normalized (MEAN): S441G
# T5 construct: Strep Tag II (N); superfolder GFP (sfGFP) (N); expressed in transfected cells; host or cells: HEK293T
# T5 sequence (P43004 whole entry S441G): as the sequence (P43004 whole entry D475A) above, with S441G, A475D counted along it
# Protocol: as §1, §2
# [1] = system: ionotropic and metabotropic glutamate receptors; conditions: sentence of earlier manuscript version quoted by reviewer; no reference given; cited from earlier work
# hEAAT2 mutant I464V = target: T6, hEAAT2 mutant I464V (Homo sapiens, UniProt P43004, I464V); assay: whole-cell patch-clamp, hEAAT2 mutant I464V in HEK293T cells; format: cell-based; conditions: 0 mV; for WAY-213613-inhibited current, normalized (MEAN): I464V
# T6 construct: Strep Tag II (N); superfolder GFP (sfGFP) (N); expressed in transfected cells; host or cells: HEK293T
# T6 sequence (P43004 whole entry I464V): as the sequence (P43004 whole entry D475A) above, with I464V, A475D counted along it
# Protocol: as §1, §2
# [2] = 0.03 μM WAY-213613, normalized to current at 30 μM
# [3] = 0.1 μM WAY-213613, normalized to current at 30 μM
# [4] = 0.3 μM WAY-213613, normalized to current at 30 μM
# [5] = 1 μM WAY-213613, normalized to current at 30 μM
# [6] = 3 μM WAY-213613, normalized to current at 30 μM
# [7] = 10 μM WAY-213613, normalized to current at 30 μM
# [8] = 30 μM WAY-213613, normalization reference
structure (smiles),measurement,setting,value
NC(CC(=O)Nc1ccc(Oc2cc(F)c(F)cc2Br)cc1)C(=O)O (stereo not drawn) [WAY-213613],selectivity (affinity) for hEAAT2 over hEAAT3,hEAAT3; hEAAT2 over hEAAT3,44 fold
same,IC50,hEAAT3; hEAAT3,3.8 µM
same,IC50,hEAAT2,85 nM
same,"WAY-213613-inhibited current, normalized (MEAN)","hEAAT2 mutant D475A; 0.3 μM WAY-213613, normalized to current at 100 μM",0.06104
same,"WAY-213613-inhibited current, normalized (MEAN)","hEAAT2 mutant D475A; 1 μM WAY-213613, normalized to current at 100 μM",0.08742
same,"WAY-213613-inhibited current, normalized (MEAN)","hEAAT2 mutant D475A; 3 μM WAY-213613, normalized to current at 100 μM",0.1387
same,"WAY-213613-inhibited current, normalized (MEAN)","hEAAT2 mutant D475A; 10 μM WAY-213613, normalized to current at 100 μM",0.2967
same,"WAY-213613-inhibited current, normalized (MEAN)","hEAAT2 mutant D475A; 30 μM WAY-213613, normalized to current at 100 μM",0.647
same,"WAY-213613-inhibited current, normalized (MEAN)","hEAAT2 mutant D475A; 100 μM WAY-213613, normalization reference",1
same,Ki,"hEAAT2 mutant D475A; D475A mutant, read-out: apparent Ki",30.5 µM
same,IC50,hEAAT1; hEAAT1,5 µM
same,selectivity (affinity) for hEAAT2 over hEAAT1,hEAAT1; hEAAT2 over hEAAT1,59 fold
same,"WAY-213613-inhibited current, normalized (MEAN)","wild-type hEAAT2; 0.01 μM WAY-213613, 0 mV, normalized to current at 30 μM WAY-213613",0.1531
same,"WAY-213613-inhibited current, normalized (MEAN)","wild-type hEAAT2; 0.03 μM WAY-213613, 0 mV, normalized to current at 30 μM WAY-213613",0.3093
same,"WAY-213613-inhibited current, normalized (MEAN)","wild-type hEAAT2; 0.1 μM WAY-213613, 0 mV, normalized to current at 30 μM WAY-213613",0.5406
same,"WAY-213613-inhibited current, normalized (MEAN)","wild-type hEAAT2; 0.3 μM WAY-213613, 0 mV, normalized to current at 30 μM WAY-213613",0.7864
same,"WAY-213613-inhibited current, normalized (MEAN)","wild-type hEAAT2; 1 μM WAY-213613, 0 mV, normalized to current at 30 μM WAY-213613",0.9254
same,"WAY-213613-inhibited current, normalized (MEAN)","wild-type hEAAT2; 3 μM WAY-213613, 0 mV, normalized to current at 30 μM WAY-213613",0.9686
same,"WAY-213613-inhibited current, normalized (MEAN)","wild-type hEAAT2; 30 μM WAY-213613, 0 mV, normalization reference",1
same,effect of inhibitor on anion leak conductance,wild-type hEAAT2; wild-type hEAAT2,block the anion leak conductance
same,Ki,"wild-type hEAAT2; wild-type hEAAT2, HEK293T, 0 mV, Michaelis-Menten-like fit, read-out: apparent Ki (inhibition of anion leak current)",70 ± 30 nM
same,"WAY-213613-inhibited current, normalized (MEAN)",hEAAT2 mutant V468I; [2],0.136
same,"WAY-213613-inhibited current, normalized (MEAN)",hEAAT2 mutant V468I; [3],0.3481
same,"WAY-213613-inhibited current, normalized (MEAN)",hEAAT2 mutant V468I; [4],0.6012
same,"WAY-213613-inhibited current, normalized (MEAN)",hEAAT2 mutant V468I; [5],0.8026
same,"WAY-213613-inhibited current, normalized (MEAN)",hEAAT2 mutant V468I; [6],0.923
same,"WAY-213613-inhibited current, normalized (MEAN)",hEAAT2 mutant V468I; [7],0.993
same,"WAY-213613-inhibited current, normalized (MEAN)",hEAAT2 mutant V468I; [8],1
same,Ki,"hEAAT2 mutant V468I; V468I mutant, read-out: apparent Ki",~200 nM and 196 nM
same,"WAY-213613-inhibited current, normalized (MEAN)",hEAAT2 mutant L467I; [2],0.06992
same,"WAY-213613-inhibited current, normalized (MEAN)",hEAAT2 mutant L467I; [3],0.1548
same,"WAY-213613-inhibited current, normalized (MEAN)",hEAAT2 mutant L467I; [4],0.4253
same,"WAY-213613-inhibited current, normalized (MEAN)",hEAAT2 mutant L467I; [5],0.7036
same,"WAY-213613-inhibited current, normalized (MEAN)",hEAAT2 mutant L467I; [6],0.8764
same,"WAY-213613-inhibited current, normalized (MEAN)",hEAAT2 mutant L467I; [7],1.001
same,"WAY-213613-inhibited current, normalized (MEAN)",hEAAT2 mutant L467I; [8],1
same,Ki,"hEAAT2 mutant L467I; L467I mutant, read-out: apparent Ki",~460 nM and 464 nM
same,"WAY-213613-inhibited current, normalized (MEAN)",hEAAT2 mutant S441G; [2],0.08476
same,"WAY-213613-inhibited current, normalized (MEAN)",hEAAT2 mutant S441G; [3],0.2697
same,"WAY-213613-inhibited current, normalized (MEAN)",hEAAT2 mutant S441G; [4],0.5414
same,"WAY-213613-inhibited current, normalized (MEAN)",hEAAT2 mutant S441G; [5],0.7785
same,"WAY-213613-inhibited current, normalized (MEAN)",hEAAT2 mutant S441G; [6],0.8947
same,"WAY-213613-inhibited current, normalized (MEAN)",hEAAT2 mutant S441G; [7],0.9736
same,"WAY-213613-inhibited current, normalized (MEAN)",hEAAT2 mutant S441G; [8],1
same,Ki,"hEAAT2 mutant S441G; S441G mutant, read-out: apparent Ki",260 nM
same,effect on ionotropic and metabotropic glutamate receptors,[1],no effect
same,"WAY-213613-inhibited current, normalized (MEAN)",hEAAT2 mutant I464V; [2],0.1438
same,"WAY-213613-inhibited current, normalized (MEAN)",hEAAT2 mutant I464V; [3],0.3695
same,"WAY-213613-inhibited current, normalized (MEAN)",hEAAT2 mutant I464V; [4],0.6353
same,"WAY-213613-inhibited current, normalized (MEAN)",hEAAT2 mutant I464V; [5],0.8468
same,"WAY-213613-inhibited current, normalized (MEAN)",hEAAT2 mutant I464V; [6],0.8861
same,"WAY-213613-inhibited current, normalized (MEAN)",hEAAT2 mutant I464V; [7],0.98
same,"WAY-213613-inhibited current, normalized (MEAN)",hEAAT2 mutant I464V; [8],1
same,Ki,"hEAAT2 mutant I464V; I464V mutant, read-out: apparent Ki",~170 nM and 166 nM
